From patent US9493477B2, “Compositions comprising enzyme-cleavable ketone-modified opioid prodrugs and optional inhibitors thereof” (priority 2009, dated 2016)
Read-outs that look alike come from different tables or passages of the source.

How the values were obtained:
[1] = target: T1, human μ-opioid receptor (Homo sapiens, UniProt P35372); experiment: In vitro human μ-opioid receptor binding assay ([3H]DAMGO, recombinant HEK-293 cells); conditions: from Table 8
[2] = Pharmacokinetics following PO administration to rats (drug released into plasma from prodrug, or oxycodone); type: in vivo, rat; conditions: for oxycodone plasma concentrations compared to administration of oxycodone: PO prodrug versus PO oxycodone 10 mg/kg (Example 15)
Experimental: At specified time points, blood samples were drawn, harvested for plasma via centrifugation at 5,400 rpm at 4° C. for 5 min, and 100 microliters (μl) plasma transferred from each sample into a fresh tube containing 1 μl of formic acid. The tubes were vortexed for 5-10 seconds, immediately placed in dry ice and then stored until analysis by high performance liquid chromatography/mass spectrometry (HPLC/MS).
At specified time points, blood samples were drawn, harvested for plasma via centrifugation at 5,400 rpm at 4° C. for 5 min, and 100 microliters (μl) plasma transferred from each sample into a fresh tube containing 2 μl of 50% formic acid. The tubes were vortexed for 5-10 seconds, immediately placed in dry ice and then stored in −80° C. freezer until analysis by HPLC/MS.
At specified time points, blood samples were drawn, harvested for plasma via centrifugation at 5,400 rpm at 4° C. for 5 min, and 100 μl plasma transferred from each sample into a fresh tube containing 2 μl of 50% formic acid. The tubes were vortexed for 5-10 seconds, immediately placed in dry ice and then stored in −80° C. freezer until analysis by HPLC/MS.

[3] = Pharmacokinetics following IV administration of prodrug to rats; type: in vivo, rat
[4] = target: T2, trypsin from bovine pancreas (Bos taurus, UniProt P00760); experiment: In vitro trypsin-mediated release of drug from prodrug, without or with trypsin inhibitor Compound 109; type: biochemical
T2 construct: purchased Sigma-Aldrich T8003; host or cells: bovine pancreas
T2 sequence (P00760 24-246): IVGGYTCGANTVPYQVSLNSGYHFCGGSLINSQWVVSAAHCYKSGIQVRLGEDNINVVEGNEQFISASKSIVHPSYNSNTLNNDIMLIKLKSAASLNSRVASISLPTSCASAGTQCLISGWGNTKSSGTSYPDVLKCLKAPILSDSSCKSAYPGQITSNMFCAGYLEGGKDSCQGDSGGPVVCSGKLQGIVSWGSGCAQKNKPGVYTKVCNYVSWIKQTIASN
Experimental: The reactions were conducted at 37° C. for 24 hr. Samples were collected at specified time points, transferred into 0.5% formic acid in acetonitrile to stop trypsin activity and stored at less than −70° C. until analysis by LC-MS/MS.
Other reaction and sample treatment conditions were as described above.

[5] = In vitro stability of prodrug to household chemicals and enzyme preparations; type: physicochemical; conditions: vodka, baking soda, WINDEX, vinegar (RT or 80° C.) and GNC Super Digestive, tenderizer, subtilisn (RT), 1 or 24 hr
Experimental: (§1) Samples were incubated as described and aliquots removed at 1 hr and 24 hr and stabilized by adding each to a solution of 50% or 100% of 85% phosphoric acid solution to achieve a final pH of less than or equal to pH 4. The stabilized aliquots were then diluted 4- to 6-fold with water, vortex-mixed and applied to HPLC.
as §1, with “described. Aliquots were” for “described and aliquots”

[6] = In vivo tolerability of Compound KC-3 IV in rats; parameters: species or system rat; conditions: IV KC-3 71 mg/kg (97 μmol/kg), 4 rats dosed, observed up to 24 hours
Experimental: Male naïve Sprague-Dawley rats, 4 per dose, were used in the study. Rats were weighed, and then placed under a heat lamp for 15-20 minutes to dilate the lateral tail veins. […] Before dosing, rats were placed in Broome restrainers and the drug was introduced into one of the tail veins using a syringe and needle. […] Blood samples were collected 5 minutes post-dose via the saphenous vein. The rats were observed up to 24 hours.

[7] = target: T1, human μ-opioid receptor; type: cell-based; parameters: expressed in transfected cells; host or cells: CHO; conditions: Experiment 3; EC50 ratio, oxycodone or hydrocodone to its prodrug
Experimental: The control reaction included 1 μM DAMGO. The reaction mixtures were incubated at 37° C. for 10 min, and the reaction product was cyclic AMP (cAMP). The samples were submitted to homogeneous time resolved fluorescence (HTRF®). EC50 values (concentration producing a half-maximal specific response) were determined by non-linear regression fit using the Hillplot software.

[8] = rats, IV Compound KC-2 10 mg/kg or equimolar oxycodone, 15 minutes
[9] = 241 BAEE U trypsin/mL, no inhibitor
[10] = 4815 BAEE U trypsin/mL, no inhibitor

T1 sequence (P35372 whole entry): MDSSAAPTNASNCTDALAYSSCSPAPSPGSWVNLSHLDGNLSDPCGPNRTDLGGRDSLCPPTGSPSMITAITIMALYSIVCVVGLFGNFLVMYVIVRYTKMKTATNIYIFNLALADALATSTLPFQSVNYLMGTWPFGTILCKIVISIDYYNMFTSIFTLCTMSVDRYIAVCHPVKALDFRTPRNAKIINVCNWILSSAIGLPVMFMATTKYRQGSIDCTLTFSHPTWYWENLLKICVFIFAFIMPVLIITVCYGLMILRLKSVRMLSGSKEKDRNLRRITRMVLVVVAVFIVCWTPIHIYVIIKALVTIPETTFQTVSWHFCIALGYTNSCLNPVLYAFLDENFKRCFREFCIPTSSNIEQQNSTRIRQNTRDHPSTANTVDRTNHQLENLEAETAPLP

COc1ccc2c3c1O[C@H]1C(OC(=O)N(C)CCNC(=O)[C@H](CCCNC(=N)N)NC(C)=O)=CC[C@@]4(O)C(C2)N(C)CC[C@]314 [Compound KC-2, Oxycodone 6-(N-methyl-N-(2-N′-acetylarginylamino)) ethylcarbamate]
affinity for the μ-opioid receptor, fold less than that of oxycodone [1]: about 2 fold
plasma concentrations of oxycodone versus Compound KC-2 dose ([2]; PO 1.3 to 50 mg/kg, Table 6, FIG. 9): increase proportionally
oxycodone plasma concentrations compared to administration of oxycodone [2]: suppressed Cmax and delayed Tmax
Cmax of Compound KC-2 in plasma ([3]; IV Compound KC-2 2 mg/kg, average ± sd, 4 rats): 2680 ± 755 ng/mL
Rate of oxycodone formation ([4]; no trypsin inhibitor, 0.761 mM prodrug, 0.0228 mg/mL trypsin, 37° C.): 37.4 ± 0.9 umols/h/umol trypsin
conversion to oxycodone [5]: less than 10%
relative plasma/CSF partitioning coefficient to oxycodone (fold less CSF penetrant than oxycodone) (Table 10, 439/3.8): about 116 fold
Compound conc. in Plasma (male, Sprague Dawley, rat, in vivo): 27,200 ng/mL
Compound conc. in CSF [8]: 61.9 ng/mL
Plasma/CSF partitioning coefficient [8]: 439

COc1ccc2c3c1O[C@H]1C(OC(=O)N(C)CCNC(=O)[C@H](CCCNC(=N)N)NC(=O)CC(=O)O)=CC[C@@]4(O)[C@@H](C2)N(C)CC[C@]314 [Compound KC-3, N—{(S)-4-guanidino-1-[2-(methyl-[(5R,9R,13S,14S)-4,5a-epoxy-6,7-didehydro-14-hydroxy-3-methoxy-17-methylmorphinan-6-oxy]carbonyl-amino)-ethylcarbamoyl]-butyl}-malonamic acid]
plasma concentrations of oxycodone versus Compound KC-3 dose ([2]; PO 1.4 to 46 mg/kg, Table 11, FIG. 11): increase proportionally
Rate of oxycodone formation [4, 9]: 0.0684 ± 0.0009 umol/h/ BAEE U
Clinical observations [6]: 2 normal and 2 with ataxia which
relative plasma/CSF partitioning coefficient to oxycodone (fold less CSF penetrant than oxycodone) (Table 15, 1,737/4.8): about 364 fold

COc1ccc2c3c1OC1C(OC(=O)N(C)CCNC(=O)C(CCCNC(=N)N)NC(=O)CC(=O)O)=CCC4C(C2)N(C)CCC314 [Compound KC-4, N—((S)-1-{2-[(Dihydrocodein-6-enyloxycarbonyl)-methylamino]-ethylcarbamoyl-4-guanidino}-butyl)-malonamic acid]
KC-4 Cmax ± sd ([3]; IV KC-4 2 mg/kg ([…])): 3960 ± 570 ng/mL
Rate of hydrocodone formation [4, 9]: 0.0911 ± 0.015 umol/h/ BAEE U
Rate of hydrocodone formation [4, 10]: 0.0137 ± 0.0014 umol/h/ BAEE U
Drug/prodrug relative potency [7]: 15

COc1ccc2c3c1O[C@H]1C(OC(=O)N(CCCCCC(=O)O)CCNC(=O)[C@H](CCCNC(=N)N)NC(C)=O)=CC[C@@]4(O)[C@@H](C2)N(C)CC[C@]314 [Compound KC-5, 6-{[2-(2-Acetylamino-5-guanidino-pentanoylamino)-ethyl]-[(5R,9R,13S,14S)-4,5a-epoxy-6,7-didehydro-14-hydroxy-3-methoxy-17-methylmorphinan-6-oxy]-1-enyloxycarbonyl-amino}-hexanoic acid]
oxycodone plasma concentrations compared to administration of oxycodone [2]: suppressed Cmax and AUC and delayed Tmax
Rate of oxycodone formation [4, 9]: 0.135 ± 0.005 umol/h/ BAEE U
relative plasma/CSF partitioning coefficient to oxycodone (fold less CSF penetrant than oxycodone) (Table 22, 1,508/4.8): about 316 fold

COc1ccc2c3c1O[C@H]1C(OC(=O)N(C)C[C@H](NC(=O)[C@H](CCCNC(=N)N)NC(C)=O)C(=O)N(C)CC(=O)O)=CC[C@@]4(O)[C@@H](C2)N(C)CC[C@]314 [Compound KC-6]
oxycodone plasma concentrations compared to administration of oxycodone [2]: suppressed Cmax and AUC and delayed Tmax
Rate of oxycodone formation [4, 9]: 0.0118 ± 0.0042 umol/h/ BAEE U
Rate of oxycodone formation [4, 10]: 0.00571 ± 0.0002 umol/h/ BAEE U
relative plasma/CSF partitioning coefficient to oxycodone (fold less CSF penetrant than oxycodone) (Table 25, 815/4.8): about 171 fold
